The test has as its target T1, WT EhV1 (A3B3DF complex, V1-ATPase from Enterococcus hirae) (Enterococcus hirae, UniProt Q08636+Q08637).
T1 construct: gene ntpA
Briefly: single-molecule rotation, ADP-dependent backward steps and pause durations. Format: biochemical. Particulars: ATPγS-driven rotation; 10-100 μM ATPγS, 1-300 μM ADP, no ADP-quenching system, pH 6.5.

`Nc1ncnc2c1ncn2[C@@H]1O[C@H](COP(=O)(O)OP(=O)(O)O)[C@@H](O)[C@H]1O` [ADP]: the “single-molecule rotation, ADP-dependent backward steps and pause durations” value is reported as “the addition of ADP causes frequent backward steps during the rotation”.

The record behind these values is PMC6851342 (The Journal of Biological Chemistry, 2019).
